From patent US20120093947A1, “METHOD OF TREATING REACTIVE AIRWAY DISEASE” (UNITED STATES DEPARTMENT OF VETERANS AFFAIRS, priority 2009, published 2012)
Where two headings read alike, the source gives them in different places.

Tests used:
LPO = target: T1, LPO (Bos taurus, UniProt P80025); test: Nitration of salbutamol by LPO/H2O2/NO2−, A410; type: biochemical, bovine; conditions: for Nitrophenols, (%) LPO: […] NaNO2, 4 mM H2O2, 65 nM LPO, pH 7.0, 10 min, ΔA410 versus control
T1 construct: Lactoperoxidase (LPO) from bovine milk (EC 1.11.1.7); purchased Sigma-Aldrich Co. (St. Louis, Mo.); host or cells: bovine milk (natural source)
Description: Spectrophotometric Measurements. Spectra are measured using an Agilent diode array spectrophotometer model 8453 (Agilent Technologies, Inc., Santa Clara, Calif.). Nitration of salbutamol is studied by measuring absorption spectra at designated time points following the start of the reaction. Samples are prepared in 100 mM phosphate buffers (pH 7.0). All buffers contained DTPA (100 μM) or are pretreated with Chelex-100 before use, and measurements are performed at ambient temperature of 20° C. Typically, the reaction is started by the addition of a small aliquot of H2O2 or the desired peroxidase. Time course measurements are carried out following changes in absorbance at 410 nm in 30 second intervals versus absorbance at 800 nm, where none of the compounds absorb.
Ascorbate (AscH^−) is an effective natural antioxidant protecting airways from oxidative injury. Cross et al., (1994) Environ. Health Perspect. 102 (suppl. 10):185-191. Its concentration in the respiratory tract lining fluid is estimated to be near 100 μM (Id.). We examine the effect of AscH^− on nitration of 100 μM salbutamol by 67 nM LPO, 4 mM H2O2, and 3.5 mM of NaNO2 by measuring absorption at 410 nm. […] The duration of the lag period depends on AscH^− concentration. […] See, e.g., Reszka et al. (1999) Free Radic. Biol. & Med. 26:669-678.
As noted earlier, methimazole is an antithyroid drug, an effective inhibitor of LPO activity. 100 μM of salbutamol is reacted with 73 nM LPO, 3.5 mM NaNO2, and 4 mM H2O2 at pH buffer 7.0 in the presence of 0, 27, 55, and 109 μM methimazole (shown in FIG. 9, section A, traces a-d, respectively). Traces c and d also indicate by arrow when additional LPO is added to the system. […] In contrast to effects exerted by AscH^− or SCN^−, methimazole-dependent inhibition is permanent and is probably due to inactivation of the enzyme, since a second dose of LPO reactivates the process (FIG. 9, section A, trace c).
Dapsone, an anti-inflammatory and anti-leprotic agent, is a potent inhibitor of LPO and MPO. See, e.g., Kettle et al. (1991) Biochem. Pharmacol. 41(10):1485-1492; Bozeman et al. (1992) Biochem. Pharmacol. 44(2):553-563. 97 μM of salbutamol is reacted with 65 nM LPO, 3.4 mM NaNO2, and 4 mM H2O2 at pH buffer 7.0 in the presence of 0, 2.5, 5, 10, 50, and 100 μM dapsone (shown in FIG. 10, traces a-f, respectively). The arrows in traces d and e of FIG. 10 indicate where additional LPO is added to the system. […] Dapsone at 50 μM inhibited nitration by approximately 86%. Given the high concentrations of NaNO2 and H2O2 used in this system, dapsone appears to be a potent blocker of nitration.
The extent of nitration is expressed as a change in ΔA410 versus control (dapsone omitted) taken as 100% after 10, 30, and 60 minute reactions for LPO, MPO, and EPO nitrating systems, respectively. Results equal the means±SE of at least two measurements. In the LPO system, 100 μM of salbutamol, 3.4 mM of NaNO2, 4 mM of H2O2, and 65 nM of LPO is used. In the MPO system, 50 μM of salbutamol, 5.0 mM of NaNO2, 5 mM of H2O2, and 0.2 U/mL of MPO is used. In the EPO system, 50 μM of salbutamol, 5 mM of NaNO2, 2 mM of H2O2, and 0.075 U/mL of EPO is used. All reactions were carried out in pH 7.0 phosphate buffer containing DMSO (5% v/v). The term “nitrophenols” includes nitrosalbutamol (N-Sal) and salbutamol-derived nitrophenol (N—ArOH).

MPO = MPO (Homo sapiens, UniProt P05164); test: EPR of MNP adducts with radicals from β2-agonists generated by MPO/H2O2; type: biochemical; set-up: Myeloperoxidase (MPO) from human leucocytes (lyophilized powder); purchased Axxora, LLC (San Diego, Calif.); host or cells: human leucocytes (natural source)
Description: Formation of free radicals from β2-agonists is studied in samples prepared in 100 mM phosphate buffer (pH 7.0 and 8.0)/DTPA (0.2 mM) (total volume 250 μL) containing MNP, MPO (or LPO) and the agonists. The reaction is initiated by the addition of H2O2 as the last component. In experiments in which H2O2 was generated using glucose (1 mM) and glucose oxidase (3.9 μg/mL), glucose oxidase is added as a last component. The sample is transferred to a flat aqueous EPR cell and recording is started 1 minute after initiation of the reaction. Typically, spectra of MNP adducts are recorded using microwave power 20 mW, modulation amplitude 0.1 mT, receiver gain 2×10^5, conversion time 40.96 ms, time constant 81.92 ms, and scan rate of 10 mT/41.92 s. EPR spectra constitute an average of 5 scans and represent results of typical experiments. Unless stated otherwise, direct EPR measurements (spin traps omitted) of free radicals derived from β2-agonists are performed using conditions similar to those for the detection of MNP adducts. EPR spectra are simulated using WINSIM software developed at NIEHS/NIH (RTP, NC).
The effect of methimazole and dapsone on the formation of free radicals from drugs is studied in phosphate buffers (pH 7.0 and 8.0) containing DTPA (0.2 mM) and MNP (10 mM in dimers). Oxidation is carried out by MPO (0.43 units/mL)/H2O2 (37 μM) and LPO (0.39 μM)/glucose (1 mM)/glucose oxidase (0.8 μg/mL). […]
Table 3, below, summarizes the effects of dapsone and methimazole on EPR spectra of MNP adducts with radicals from fenoterol and terbutaline generated by MPO/H2O2 and LPO/H2O2 systems at a pH of 8.0. Concentrations of MNP spin adducts were calculated as second integrals of the low-field component of the respective spectra and are expressed as % of control samples (no additives). Results equal the means±SE of at least two measurements.
. […] This is consistent with the known inhibitory action of both methimazole and dapsone on LPO activity and only methimazole on MPO activity. Thomas et al. (1994) J. Dent. Res. 73(2):544-55. Results obtained at pH 7.0 qualitatively agree with those at pH 8.0.

Chain of MPO (P05164 279-745 limits assumed): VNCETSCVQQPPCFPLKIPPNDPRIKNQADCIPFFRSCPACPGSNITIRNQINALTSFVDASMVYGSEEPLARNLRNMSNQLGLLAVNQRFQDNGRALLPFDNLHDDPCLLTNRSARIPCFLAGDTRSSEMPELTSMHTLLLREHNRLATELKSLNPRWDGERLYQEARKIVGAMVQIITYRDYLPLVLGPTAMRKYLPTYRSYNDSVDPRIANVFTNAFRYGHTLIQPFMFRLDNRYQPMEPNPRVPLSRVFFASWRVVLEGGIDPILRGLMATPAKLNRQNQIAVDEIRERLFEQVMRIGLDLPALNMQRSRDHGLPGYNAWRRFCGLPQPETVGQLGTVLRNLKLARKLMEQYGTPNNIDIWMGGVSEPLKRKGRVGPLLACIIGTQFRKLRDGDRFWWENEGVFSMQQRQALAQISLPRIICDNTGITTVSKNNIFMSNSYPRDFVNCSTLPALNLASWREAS
Chain of MPO (P05164 165-273 limits assumed): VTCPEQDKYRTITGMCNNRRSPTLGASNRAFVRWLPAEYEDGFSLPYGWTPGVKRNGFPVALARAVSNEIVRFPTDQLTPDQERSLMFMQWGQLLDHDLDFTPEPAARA

Row | Nitrophenols, (%) LPO (LPO; dapsone 2.5 μM, 100 μM salbutamol) [%] | Nitrophenols, (%) LPO (LPO; dapsone 5.0 μM, 100 μM salbutamol) [%] | Nitrophenols, (%) LPO (LPO; dapsone 10.0 μM, 100 μM salbutamol) [%] | inhibition at 50 µM (LPO; dapsone 50 μM, 97 μM salbutamol, 65 nM LPO, 3.4 mM NaNO2, 4 mM H2O2, pH 7.0) [%] | Nitrophenols, (%) LPO (LPO; dapsone 50.0 μM, 100 μM salbutamol) [%] | Effect on MPO activity (formation of radicals from fenoterol and terbutaline, MPO system) (MPO; inhibitor 1 mM, MPO/H2O2) | Nitration of salbutamol by LPO/H2O2/NO2− (A410 versus time) (LPO; methimazole close to 100 μM (109 μM), 100 μM salbutamol, 73 nM LPO, 3.5 mM NaNO2, 4 mM H2O2, pH 7.0) | Concentration of MNP spin adducts, Fenoterol, +MPO + H2O2, % of control (MPO; fenoterol 0.47 mM, inhibitor 0.86 mM, reagent H2O2 37 μM, pH 8.0) | remaining activity at 860 µM (MPO; fenoterol 0.47 mM, inhibitor 0.86 mM, reagent H2O2 37 μM, pH 8.0, read-out: Concentration of MNP spin adducts, Fenoterol, +MPO + H2O2, % of control) [%] | Concentration of MNP spin adducts, Terbutaline, +MPO + H2O2, % of control (MPO; terbutaline 0.47 mM, inhibitor 0.86 mM, reagent H2O2 37 μM, pH 8.0) | remaining activity at 860 µM (MPO; terbutaline 0.47 mM, inhibitor 0.86 mM, reagent H2O2 37 μM, pH 8.0, read-out: Concentration of MNP spin adducts, Terbutaline, +MPO + H2O2, % of control) [%] | Compound
1 | 72.8 ± 2.0 | 58.4 ± 1.4 | 45.7 ± 2.0 | ~86 | 14.0 ± 2.7 | only a minimal effect | – | – | – | – | – | Nc1ccc(S(=O)(=O)c2ccc(N)cc2)cc1 [Dapsone, diamino-diphenyl sulfone]
2 | – | – | – | – | – | – | completely prevents | inhibitory | 22.4 ± 0.6 | inhibitory | 33.5 ± 3.5 | Cn1cc[nH]c1=S [Methimazole, 1-methyl-3H-imidazole-2-thione]
